Assay results reported in patent US6268381A, “Taxane derivatives” (Kabushiki Kaisha Yakult Honsha, priority 1997, dated 2001).
Values after ≈ are worked out from the molar mass of the structure shown.

Legend:
KB cells = experiment: Growth inhibitory activity against KB cells (Test 2, XTT assay); assay type: cell-based, human; settings: for GI50: Homo sapiens, 72 h, 3 days culture; for Activity ratio: relative to Taxol (1.00)
Procedure: Growth Inhibitory Activity of Taxane Derivatives (1)
As KB cells derived from a human mouth cancer, those purchased from Dainippon Pharmaceutical Co., Ltd. and stored in a lyophilized from at the Research Institute of that company was used. In Dulbecco's modified Eargle's medium containing 10% fetal bovine serum (product of NISSUI PHARMACEUTICAL CO., LTD.), the KB cells were cultured and maintained under the conditions of 5%, CO2 -ari and 37° C.
Each compound was used by dissolving it in DMSO at a concentration of 10 mg/mL.
On Day-1, cells which were in a logarithmic growth phase were inoculated at 2,000 cells/100 μl/well on 96-well microtiter plates (Falcon #3072) by using a phenol-red-free culture medium with 10% fetal bovine serum contained therein (Dulbecco's modified Eargle's medium (Sigma)), and were cultured overnight. On Day 0, the compounds each of which had been diluted to 0.03 to 10,000 ng/mL with the same culture medium were added in 100 μl aliquots to the individual wells, and the cells were cultured for 3 days. Three wells were used per each drug concentration. Each plate was provided with three blank wells containing only the culture medium and also with eight wells as a drug-untreated control.
Upon use, XTT (Sigma) was dissolved at a concentration of 1 mg/mL in each culture medium which was free of serum. Phenodin methosulfate (Sigma) dissolved at a concentration of 5 mM in PBS was added to the resulting solution at a volume ratio of 1/200. To each well, the solution so prepared was added in an amount of 50 μl per well. Subsequent to culture for 4 hours, OD was measured at 450 nm by ELISA.
Calculation of 50% Growth Inhibitory Concentration (GI50)
GI50 was calculated by interpolation from a concentration-growth inhibition rate (GIR) curve. GIR was determined in accordance with the following formula: [formula]

[1] = Solubility test of water-soluble taxane derivatives (Test 1, HPLC); assay type: physicochemical; settings: purified water + 1.05 eq. 0.1N hydrochloric acid, shaken 2 hours at room temperature
Procedure: Solubilities of Novel Water-soluble Taxane Derivatives
I) Preparation of a calibration curve
Compound (1-4) was weighed in an amount of 2.3 mg, to which 2.3 mL of acetonitrile was added so that the compound was dissolved to provide a standard solution. Using a 10 μL portion of the standard solution, the test was conducted by HPLC (operation conditions 1). The peak area of Compound (1-4), which had been obtained from the chromatogram of the standard solution, was measured by automated integration. The peak area obtained as an average of three measurements was plotted against the amount (10 μg) of Compound (1-4) per 10 μL, whereby a calibration curve was prepared.
Calibration curve of Compound (1-4): Y =1.518 ×10^-5 X [X: peak area, Y: amount (μg) of Compound (1-4)] [HPLC operation conditions 1] Column: Inertsil ODS-2 (5-250), 40 deg. Mobile phase: 0.01M KH2 PO4 --CH3 CN (3:2). Flow rate: 1.0 mL/min. Detection: Ultraviolet absorption photometer (225 nm), 0.2 AUFS.
II) Solubility test of Compound (1-4):
Compound (1-4) was weighed in an amount of 3.7 mg and then suspended in 2.0 mL of purified water. To the resulting suspension, 41.3 μL (1.05 eq.) of 0.1N hydrochloric acid was added. […] From the area obtained as an average of three measurements, the solubility of the compound (1-4) was determined. […]

ovarian cancer = settings: Ann. int. Med. 111, 273, 1989; cited from earlier work
breast cancer = settings: Ann. int. Med. 111, 273, 1989; cited from earlier work

| SMILES | GI50 (KB cells) [ng/mL] | Activity ratio (KB cells) | Amount dissolved ([1]; average of three measurements) [μg/5 μL] | solubility at 2 h ([1]; water + 0.1n hcl) [µg/mL] | Efficacy against ovarian cancer (ovarian cancer) | Efficacy against breast cancer (breast cancer) |
| --- | --- | --- | --- | --- | --- | --- |
| CC(=O)O[C@@]12CO[C@@H]1C[C@H](O)[C@@]1(C)C(=O)[C@H](OC(=O)N3CCC(N4CCCCC4)CC3)C3=C(C)[C@@H](OC(=O)[C@H](O)[C@@H](NC(=O)OC(C)(C)C)c4ccoc4)C[C@@](O)([C@@H](OC(=O)c4ccccc4)[C@H]21)C3(C)C [Compound 1-1, 13-0-[3-(tert-Butoxycarbonylamino)-3-(3-furyl)-2-hydroxypropionyl]-10-0-(4-piperidinopiperidinocarbonyl)-10-deacetylbaccatin III] | 0.48 (≈ 0.484 nM) | 2.70 |  |  |  |  |
| CC(=O)O[C@@]12CO[C@@H]1C[C@H](O)[C@@]1(C)C(=O)[C@H](OC(=O)N3CCN(C)CC3)C3=C(C)[C@@H](OC(=O)[C@H](O)[C@@H](NC(=O)OC(C)(C)C)c4ccoc4)C[C@@](O)([C@@H](OC(=O)c4ccccc4)[C@H]21)C3(C)C [Compound 1-2] | 0.28 (≈ 0.303 nM) | 4.64 |  |  |  |  |
| CCCN(CCC)C1CCN(C(=O)O[C@H]2C(=O)[C@@]3(C)[C@H]([C@H](OC(=O)c4ccccc4)[C@]4(O)C[C@H](OC(=O)[C@H](O)[C@@H](NC(=O)OC(C)(C)C)c5ccco5)C(C)=C2C4(C)C)[C@]2(OC(C)=O)CO[C@@H]2C[C@@H]3O)CC1 [Compound 1-3, 13-0-[3-(tert-Butoxycarbonylamino)-3-(2-furyl)-2-hydroxypropionyl]-10-0-(4-dipropylaminopiperidinocarbonyl)-10-deacetylbaccatin III] | 0.43 (≈ 0.427 nM) | 3.02 |  |  |  |  |
| CCN1CCN(C(=O)O[C@H]2C(=O)[C@@]3(C)[C@H]([C@H](OC(=O)c4ccccc4)[C@]4(O)C[C@H](OC(=O)[C@H](O)[C@@H](NC(=O)OC(C)(C)C)c5ccco5)C(C)=C2C4(C)C)[C@]2(OC(C)=O)CO[C@@H]2C[C@@H]3O)CC1 [Compound 1-4, 13-0-[3-(tert-Butoxycarbonylamino)-3-(2-furyl)-2-hydroxypropionyl]-10-0-(4-ethylpipezinocarbonyl)-10-deacetylbaccatin III] | 0.23 (≈ 0.245 nM) | 5.65 | 7.87 | 1570 |  |  |
| CC(=O)O[C@H]1C(=O)[C@@]2(C)[C@H]([C@H](OC(=O)c3ccccc3)[C@]3(O)C[C@H](OC(=O)[C@H](O)[C@@H](NC(=O)c4ccccc4)c4ccccc4)C(C)=C1C3(C)C)[C@]1(OC(C)=O)CO[C@@H]1C[C@@H]2O [Taxol] | 1.3 (≈ 1.52 nM) |  |  |  | high efficacy | high efficacy |
